# Laboratory results from US20040127403A1, “Methods for treating and preventing Gram-positive bacteremias” (priority 2002, published 2004).
# Like-named read-outs stand apart in the source and are kept apart here.
# How the values were obtained:
# Test in all cases: MIC, NCCLS broth microdilution
# Format in all cases: cell-based
# E. faecalis A7789 Line-R = conditions: Enterococcus faecalis, A7789LINER
# Experimental: (§1) The efficacy of ramoplanin was tested against recently isolated VRE that are resistant to linezolid and quinupristin/dalfopristin. The culture media containing ramoplanin was supplemented with 0.02% bovine serum albumin (BSA) to prevent ramoplanin binding to the plastic. MIC values were determined in both cation-adjusted Mueller-Hinton broth (CAMHB) and trypticase soy broth (TSB) by the National Committee for Clinical Laboratory Standards (NCCLS) broth microdilution method. Macromolecular biosynthesis experiments were done by following the incorporation of carbon-14-labeled N-acetylglucosamine, acetic acid, amino acids, uridine, and thymidine into peptidoglycan, fatty acid, protein, RNA and DNA, respectively.
# E. faecium A6349 Line-R = conditions: Enterococcus faecium, A6349LINER, read-out: MIC
# Experimental: as §1
# E. gallinarum UA604 = conditions: Enterococcus gallinarum, GALLINARUM, read-out: MIC
# Experimental: as §1
# S. aureus ATCC43300 MRSA = conditions: Staphylococcus aureus, ATCC 43300 / MRSA / VISA, S. aureus ATCC43300 MRSA/VISA, read-out: MIC
# Experimental: as §1
# E. faecium UA210 = conditions: Enterococcus faecium, UA210, E. faecium UA210, read-out: MIC
# Experimental: as §1
# S. epidermidis ATCC14990 = conditions: Staphylococcus epidermidis, ATCC14990, S. epidermidis ATCC14990, read-out: MIC
# Experimental: as §1
# S. aureus ATCC12600 MRSA = conditions: Staphylococcus aureus, read-out: MIC
# Experimental: as §1
# E. faecium A4192 Syn-R = conditions: Enterococcus faecium, A4192SYNR, read-out: MIC
# Experimental: as §1
# E. faecium A6350 Line-R = conditions: Enterococcus faecium, A6350LINER, read-out: MIC
# Experimental: as §1
# E. faecium A2735 Syn-R = conditions: Enterococcus faecium, A2735SYNR, read-out: MIC
# Experimental: as §1
# E. faecium A5959 Line-R = conditions: Enterococcus faecium, A5959LINER
# Experimental: as §1
# E. faecalis ATCC29212 = test system: E. faecalis ATCC29212
# Experimental: as §1
# S. aureus ATCC27660 MSSA = conditions: Staphylococcus aureus, read-out: MIC
# Experimental: as §1
# E. faecium ATCC700221 = conditions: Enterococcus faecium, ATCC700221, E. faecium ATCC700221, read-out: MIC
# Experimental: as §1
# S. epidermidis ATCC35983 = conditions: Staphylococcus epidermidis, ATCC35983, S. epidermidis ATCC35983, read-out: MIC
# Experimental: as §1
# E. faecium A6343 Line-R = conditions: Enterococcus faecium, A6343LINER, read-out: MIC
# Experimental: as §1
# S. aureus ATCC35556 MRSA = conditions: Staphylococcus aureus, read-out: MIC
# Experimental: as §1
# E. faecium A6345 Line-R = conditions: Enterococcus faecium, A6345LINER, E. faecium A6345 Line-R, read-out: MIC
# Experimental: as §1
# S. aureus ATCC19636 MSSA = conditions: Staphylococcus aureus, read-out: MIC
# Experimental: as §1
# S. aureus ATCC27659 MSSA = conditions: Staphylococcus aureus, read-out: MIC
# Experimental: as §1
# E. faecium A-5960 Line-R = conditions: Enterococcus faecium, A5960LINER
# Experimental: as §1
# S. epidermidis ATCC12228 = conditions: Staphylococcus epidermidis, ATCC12228, S. epidermidis ATCC12228, read-out: MIC
# Experimental: as §1
# E. faecium 1836 = conditions: Enterococcus faecium, 1836, E. faecium 1836, read-out: MIC
# Experimental: as §1
smiles,measurement,setting,value
"COc1cccc(OC)c1C(=O)N[C@@H]1C(=O)N2[C@@H]1SC(C)(C)[C@@H]2C(=O)O [Meth., methicillin]",MIC,"E. faecalis A7789 Line-R; Table 6, 1st",> 16 mg/L
same,MIC,"E. faecalis A7789 Line-R; Table 6, 2nd",32 mg/L
same,MIC,"E. faecium A6349 Line-R; Table 6, 1st",> 16 mg/L
same,MIC,"E. faecium A6349 Line-R; Table 6, 2nd",> 64 mg/L
same,MIC,"E. gallinarum UA604; Table 6, 1st",> 16 mg/L
same,MIC,"E. gallinarum UA604; Table 6, 2nd",> 64 mg/L
same,MIC,"S. aureus ATCC43300 MRSA; Table 6, 1st",8 mg/L
same,MIC,"S. aureus ATCC43300 MRSA; Table 6, 2nd",8 mg/L
same,MIC,"E. faecium UA210; Table 6, 1st",> 16 mg/L
same,MIC,"E. faecium UA210; Table 6, 2nd",> 64 mg/L
same,MIC,"S. epidermidis ATCC14990; Table 6, 1st",1 mg/L
same,MIC,"S. epidermidis ATCC14990; Table 6, 2nd",1 mg/L
same,MIC,"S. aureus ATCC12600 MRSA; Table 6, 1st",2 mg/L
same,MIC,"S. aureus ATCC12600 MRSA; Table 6, 2nd",> 64 mg/L
same,MIC,"E. faecium A4192 Syn-R; Table 6, 1st",> 16 mg/L
same,MIC,"E. faecium A4192 Syn-R; Table 6, 2nd",> 64 mg/L
same,MIC,"E. faecium A6350 Line-R; Table 6, 1st",> 16 mg/L
same,MIC,"E. faecium A6350 Line-R; Table 6, 2nd",64 mg/L
same,MIC,"E. faecium A2735 Syn-R; Table 6, 1st",> 16 mg/L
same,MIC,"E. faecium A2735 Syn-R; Table 6, 2nd",> 64 mg/L
same,MIC,"E. faecium A5959 Line-R; Table 6, 1st",> 16 mg/L
same,MIC,"E. faecium A5959 Line-R; Table 6, 2nd",> 64 mg/L
same,MIC,"E. faecalis ATCC29212; E. faecalis ATCC29212, Table 6, 1st",16 mg/L
same,MIC,"E. faecalis ATCC29212; Enterococcus faecalis, ATCC29212, E. faecalis ATCC29212, Table 6, 1st, read-out: MIC",> 16 mg/L
same,MIC,"E. faecalis ATCC29212; Enterococcus faecalis, ATCC29212, E. faecalis ATCC29212, Table 6, 2nd, read-out: MIC",32 mg/L
same,MIC,"S. aureus ATCC27660 MSSA; Table 6, 1st",2 mg/L
same,MIC,"S. aureus ATCC27660 MSSA; Table 6, 2nd",4 mg/L
same,MIC,"E. faecium ATCC700221; Table 6, 1st",> 16 mg/L
same,MIC,"E. faecium ATCC700221; Table 6, 2nd",> 64 mg/L
same,MIC,"S. epidermidis ATCC35983; Table 6, 1st",> 16 mg/L
same,MIC,"S. epidermidis ATCC35983; Table 6, 2nd",64 mg/L
same,MIC,"E. faecium A6343 Line-R; Table 6, 1st",> 16 mg/L
same,MIC,"E. faecium A6343 Line-R; Table 6, 2nd",64 mg/L
same,MIC,"S. aureus ATCC35556 MRSA; Table 6, 1st",1 mg/L
same,MIC,"S. aureus ATCC35556 MRSA; Table 6, 2nd",1 mg/L
same,MIC,"E. faecium A6345 Line-R; Table 6, 1st",> 16 mg/L
same,MIC,"E. faecium A6345 Line-R; Table 6, 2nd",> 64 mg/L
same,MIC,"S. aureus ATCC19636 MSSA; Table 6, 1st",1 mg/L
same,MIC,"S. aureus ATCC19636 MSSA; Table 6, 2nd",2 mg/L
same,MIC,"S. aureus ATCC27659 MSSA; Table 6, 1st",2 mg/L
same,MIC,"S. aureus ATCC27659 MSSA; Table 6, 2nd",2 mg/L
same,MIC,"E. faecium A-5960 Line-R; Table 6, 1st",> 16 mg/L
same,MIC,"E. faecium A-5960 Line-R; Table 6, 2nd",> 64 mg/L
same,MIC,"S. epidermidis ATCC12228; Table 6, 1st",1 mg/L
same,MIC,"S. epidermidis ATCC12228; Table 6, 2nd",2 mg/L
same,MIC,"E. faecium 1836; Table 6, 1st",> 16 mg/L
same,MIC,"E. faecium 1836; Table 6, 2nd",> 64 mg/L
